In ChEMBL document CHEMBL5107956, “Natural products from mangrove sediments-derived microbes: Structural diversity, bioactivities, biosynthesis, and total synthesis” (Eur J Med Chem, 2022):
In brackets after ≈: the same amount, converted by molar mass.

Assays:
SMMC-7721 = test: Antiproliferative activity against human SMMC-7721 cells assessed as cell growth inhibition; format: functional, cell-based
NCI-H2122 = test: Cytotoxicity against human NCI-H2122 cells assessed as cell growth inhibition measured after 96 hrs by CellTiter-Glo assay; format: functional, cell-based; conditions: NCI-H2122, 96 h
[1] = Cytotoxicity against human HCC366 cells assessed as cell growth inhibition measured after 96 hrs by CellTiter-Glo assay; format: functional, cell-based; conditions: HCC366, 96 h
HCT-116 = test: Cytotoxicity against human HCT-116 cells assessed as cell growth inhibition; format: functional
LOX IMVI = test: Cytotoxicity against human LOX IMVI cells assessed as cell growth inhibition; format: functional
HOP-92 = test: Cytotoxicity against human HOP-92 cells assessed as cell growth inhibition; format: functional
OVCAR-3 = test: Cytotoxicity against human OVCAR-3 cells assessed as cell growth inhibition; format: functional
PC-3 = test: Cytotoxicity against human PC-3 cells assessed as cell growth inhibition; format: functional
[2] = molecular target: Phosphotyrosine-protein phosphatase PTPB (Mycobacterium tuberculosis, UniProt P96830); test: Inhibition of N-terminal His6-tagged Mycobacterium tuberculosis H37Rv PTPB using 6,8-difluoromethylumbelliferyl phosphate as substrate incubated for 30 mins by fluorescence based analysis
Chain of Phosphotyrosine-protein phosphatase PTPB (P96830 whole entry): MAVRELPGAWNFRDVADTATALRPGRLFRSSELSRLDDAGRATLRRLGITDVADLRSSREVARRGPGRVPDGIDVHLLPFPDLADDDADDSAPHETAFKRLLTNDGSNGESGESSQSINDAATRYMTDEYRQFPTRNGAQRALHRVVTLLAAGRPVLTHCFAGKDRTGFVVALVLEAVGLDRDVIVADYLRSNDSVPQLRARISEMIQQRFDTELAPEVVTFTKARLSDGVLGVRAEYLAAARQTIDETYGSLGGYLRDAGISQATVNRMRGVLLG

RAW264.7 = test: Antiinflammatory activity against LPS-induced mouse RAW264.7 cells assessed as inhibition of NO production measured after 24 hrs […]; format: functional, cell-based; conditions: RAW264.7, 24 h
Influenza A virus = test: Antiviral activity against Influenza A virus H1N1 by CPE inhibition assay; format: functional, organism-based
Acetylcholinesterase = Acetylcholinesterase (Homo sapiens, UniProt P22303); test: Inhibition of AChE (unknown origin) using acetylthiocholine iodide as substrate measured after 30 mins by Ellman's method
Chain of Acetylcholinesterase (P22303 whole entry): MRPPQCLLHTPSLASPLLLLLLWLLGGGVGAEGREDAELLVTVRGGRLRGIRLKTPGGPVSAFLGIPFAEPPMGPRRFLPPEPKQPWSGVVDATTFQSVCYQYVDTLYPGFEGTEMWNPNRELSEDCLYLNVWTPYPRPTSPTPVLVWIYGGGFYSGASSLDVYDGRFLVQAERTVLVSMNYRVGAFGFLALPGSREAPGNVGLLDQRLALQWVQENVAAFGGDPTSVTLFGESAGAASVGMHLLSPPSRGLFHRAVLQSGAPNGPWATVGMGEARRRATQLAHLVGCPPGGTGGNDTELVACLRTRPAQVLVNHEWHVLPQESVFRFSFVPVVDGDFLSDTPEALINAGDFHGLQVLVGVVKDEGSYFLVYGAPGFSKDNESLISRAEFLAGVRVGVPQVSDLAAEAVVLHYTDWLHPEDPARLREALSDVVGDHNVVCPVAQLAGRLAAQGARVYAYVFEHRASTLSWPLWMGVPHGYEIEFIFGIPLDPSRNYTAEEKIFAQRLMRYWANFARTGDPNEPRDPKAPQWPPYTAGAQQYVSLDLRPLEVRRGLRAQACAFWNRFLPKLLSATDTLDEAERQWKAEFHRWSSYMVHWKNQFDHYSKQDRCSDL

[3] = Antioxidant activity assessed as free radical scavenging activity by DPPH assay; format: functional
Meloidogyne incognita = test: Nematicidal activity against Meloidogyne incognita; format: functional; conditions: read-out: LD50 (the source's name)
Meloidogyne javanica = test: Nematicidal activity against Meloidogyne javanica; format: functional; conditions: read-out: LD50 (the source's name)
Proteus vulgaris = test: Antibacterial activity against Proteus vulgaris MTCC 7299 assessed as bacterial growth inhibition incubated for 48 to 72 hrs by agar plate diffusion assay; format: functional; conditions: time 48-72 hrs
A549 = test: Antiproliferative activity against human A549 cells assessed as cell growth inhibition by MTT assay; format: functional, cell-based
Bel-7402 = test: Cytotoxicity against human Bel-7402 cells assessed as cell growth inhibition by MTT assay; format: functional, cell-based
HCT-8 = test: Cytotoxicity against human HCT-8 cells assessed as cell growth inhibition by MTT assay; format: functional, cell-based
A2780 = test: Cytotoxicity against human A2780 cells assessed as cell growth inhibition by MTT assay; format: functional, cell-based
ACHN [4] = test: Antiproliferative activity against human ACHN cells assessed as cell growth inhibition; format: functional, cell-based
20S proteasome = test: Inhibition of 20S proteasome (unknown origin) by fluorescence based assay; format: protein-complex assay, Homo sapiens
[5] = system: Trypanosoma brucei brucei; test: Antitrypanosomal activity against Trypanosoma brucei brucei GUTat3.1 assessed as parasite growth inhibition measured after 72 hrs by alamar blue staining based analysis; format: functional, organism-based; conditions: GUTat3.1, 72 h
[6] = system: Trypanosoma brucei brucei; test: Antitrypanosomal activity against Trypanosoma brucei brucei GUTat3.1 assessed as parasite growth inhibition measured after 24 hrs by alamar blue staining based analysis; format: functional, organism-based; conditions: GUTat3.1, 24 h
Leishmania donovani = test: Antileishmanial activity against Leishmania donovani D10 promastigotes assessed as parasite growth inhibition incubated for 24 hrs by alamar blue staining based analysis; format: functional, organism-based; conditions: D10, 24 h
Plasmodium falciparum = test: Antiplasmodial activity against Plasmodium falciparum 3D7 infected in human erythrocyte assessed as intraerythrocytic growth inhibition measured after 24 hrs by alamar blue staining based analysis; format: functional, organism-based; conditions: 3D7, Erythrocyte
Leishmania major = test: Antileishmanial activity against Leishmania major NR48815 promastigotes assessed as parasite growth inhibition incubated for 24 hrs by alamar blue staining based analysis; format: functional, organism-based; conditions: NR48815, 24 h
Rhizoctonia solani = test: Antifungal activity against Rhizoctonia solani assessed as inhibition of fungal growth at 10 ug/ml relative to control; format: functional
K562 [7] = test: Cytotoxicity against human K562 cells assessed as inhibition of cell growth by MTT assay; format: functional, cell-based
ACHN [8] = test: Antiproliferative activity against human ACHN cells assessed as cell growth inhibition measured after 72 hrs by CCK-8 assay; format: functional, cell-based
HL-60 = test: Antiproliferative activity against human HL-60 cells assessed as cell growth inhibition measured after 72 hrs by CCK-8 assay; format: functional, cell-based; conditions: HL-60, 72 h
K562 [9] = test: Antiproliferative activity against human K562 cells assessed as cell growth inhibition measured after 72 hrs by CCK-8 assay; format: functional, cell-based; conditions: K562, 72 h
[10] = system: Pseudopestalotiopsis theae; test: Antifungal activity Pestalotiopsis theae assessed as fungal growth inhibition per disc measured after 7 days by paper disc dilution method; format: functional, organism-based

Cc1ccc(OC(=O)CCN)cc1
IC50 (SMMC-7721): 22 µg/mL (≈ 123 µM)

COc1cc2nc(C(=O)NCC(=O)O)sc2c(C/C=C(\C)CC/C=C(\C)CC/C=C(\C)CCC/C(C)=C\CC(=O)O)c1O
IC50 (NCI-H2122): 2500 nM
IC50 [1]: 6800 nM

C[C@@]12OC(=O)[C@]1([C@@H](O)[C@@H]1C=CCCC1)NC(=O)[C@@H]2CCCl [MARIZOMIB]
GI50 (HCT-116): 35 nM
GI50 (LOX IMVI): < 11 nM
GI50 (HOP-92): < 11 nM
GI50 (OVCAR-3): < 11 nM
GI50 (PC-3): < 11 nM

CC(C)[C@@H](C)/C=C/[C@@H](C)[C@@]1(C)C[C@H]2C3=C4[C@@H](C=C5C[C@@H](O)CC[C@]5(C)[C@H]4CC[C@@]31C)[C@H](C(=O)O)[C@H]2C(=O)O
IC50 [2]: 15100 nM
IC50 (RAW264.7): 4500 nM

CC[C@@H](C)C1=C2NC(=O)[C@@](O)(C/C(=C\C=O)OC)C(=O)N2[C@H](C(C)C)C(=O)N1
IC50 (Influenza A virus): 50000 nM

C[C@H]1CN2C(=O)[C@]34Cc5c([nH]c6c7c(ccc56)OC(C)(C)CC7=O)C(C)(C)[C@@H]3C[C@@]2(C1)C(=O)N4
IC50 (Acetylcholinesterase): 58000 nM

COc1cc(O)cc(C2OC(=O)c3c(O)cc(C)c(O)c32)c1O (stereo not drawn)
IC50 [3]: 1.23 µg/mL (≈ 3.86 µM)

CCCCCC[C@@H](O)[C@@H]1C(=O)O[C@H](C)[C@@H](O)/C=C/C=C/C=C/C=C/C=C(\C)[C@@H](O)[C@H](O)[C@@H](O)C[C@H](O)C[C@H](O)C[C@@H](O)C[C@@H](O)C[C@@H]1O
LC50 (Meloidogyne incognita): 7.64 µg/mL (≈ 11.2 µM)
LC50 (Meloidogyne javanica): 7.83 µg/mL (≈ 11.4 µM)

CCCOC(=O)c1ccccc1C(=O)OC(C)CC (stereo not drawn)
MIC (Proteus vulgaris): 4 µg/mL (≈ 15.1 µM)

C=C1CC[C@H]2C(C)(C)CCC[C@]2(C)[C@H]1C[C@@]12C[C@H]3C(=O)N(C)[C@@H](C(C)C)C(=O)N3[C@@H]1Nc1ccccc12
IC50 (A549): 1000 nM
IC50 (Bel-7402): 1000 nM
IC50 (HCT-8): 1000 nM
IC50 (A2780): 1000 nM

COc1nc(C/C=C(\C)C/C(C)=C/C(C)=C/[C@@H](C)[C@@H](O)/C(C)=C/C(C)=O)cc(O)c1OC
IC50 (ACHN [4]): 20 nM

CC(C)[C@H](O)[C@@]12NC(=O)[C@H](C)[C@@H]1OC2=O [OMURALIDE]
IC50 (20S proteasome): 49 nM

CCCC1C(O)=C2CCC3(C)CC(C)C(O3)C(C)C(O)C(C)C(=O)CC1OC2=O (stereo not drawn)
IC50 [5]: 2.4 µg/mL (≈ 5.87 µM)

Cc1c(C)[n+](CCC(C)C)c(-c2n(CCc3ccccc3)c(C)c(C)[n+]2CCC(C)C)n1CCc1ccccc1
IC50 [6]: 780 nM
IC50 (Leishmania donovani): 750 nM
IC50 (Plasmodium falciparum): 9080 nM
IC50 (Leishmania major): 7020 nM

Cc1oc2cc3cc(O)cc(O)c3c(O)c2c(=O)c1C
inhibition at 10 µg/mL (Rhizoctonia solani): 50.2%

C[C@@H]1OC(=O)[C@@H](O)[C@@H](C)OC(=O)[C@H](C)[C@H]1O
IC50 (K562 [7]): 1360 nM

C/C=C/[C@H](O[C@H]1O[C@@H](CO)[C@H](O)[C@@H](O)[C@@H]1O)[C@H](C)/C=C(C)/C=C/C/C(C)=C/Cc1nc(OC)c(OC)c(O)c1C
IC50 (ACHN [8]): 2300 nM
IC50 (HL-60): 1300 nM
IC50 (K562 [9]): 5500 nM

COC(=O)/C=C/C1=CC(=O)CC1O (stereo not drawn)
IC50 [10]: 125 µg
